Experiment [1] deals with Tyrosine-protein phosphatase non-receptor type 1 (Homo sapiens, UniProt P18031, A122C/P87C). Kind of experiment: Inhibition of allosterically sensitized His6-tagged human PTP1B catalytic domain P87C/A122C mutant using pNPP as substrate incubated for 90 mins by quenched phosphatase activity assay.
In experiment [2] the test system is T1, Tyrosine-protein phosphatase non-receptor type 1 (Homo sapiens), P18031 [P87C,A122C].
T1 sequence (whole entry): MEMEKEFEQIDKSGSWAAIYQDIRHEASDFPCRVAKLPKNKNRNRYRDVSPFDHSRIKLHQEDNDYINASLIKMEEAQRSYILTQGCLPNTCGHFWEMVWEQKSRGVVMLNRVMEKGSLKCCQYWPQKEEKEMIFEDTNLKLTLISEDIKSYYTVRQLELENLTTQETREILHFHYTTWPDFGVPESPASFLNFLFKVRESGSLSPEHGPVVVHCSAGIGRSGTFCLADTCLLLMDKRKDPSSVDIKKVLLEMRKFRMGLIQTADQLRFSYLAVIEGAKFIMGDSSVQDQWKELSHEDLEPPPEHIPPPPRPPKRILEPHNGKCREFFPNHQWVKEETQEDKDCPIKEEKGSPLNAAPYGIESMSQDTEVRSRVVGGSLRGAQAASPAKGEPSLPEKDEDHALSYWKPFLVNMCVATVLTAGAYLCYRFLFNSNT
Kind of experiment: Inhibition of allosterically sensitized His6-tagged human PTP1B catalytic domain P87C/A122C mutant overexpressed in Escherichia coli BL21(DE3) cells using pNPP as substrate incubated for 90 mins by quenched phosphatase activity assay.

Experiment [3] shares this test system. Kind of experiment: Binding affinity to allosterically sensitized His6-tagged human PTP1B catalytic domain P87C/A122C mutant overexpressed in Escherichia coli BL21(DE3) cells at 25 to 100 uM after 90 mins by SDS-PAGE and LC-MS/MS method.
Experiment [4] deals with Tyrosine-protein phosphatase non-receptor type 6 (Homo sapiens) (UniProt P29350). Kind of experiment: Inhibition of allosterically sensitized mutant form of His6-tagged human SHP1 catalytic domain using pNPP as substrate after 120 mins by quenched phosphatase activity assay.
Chain of Tyrosine-protein phosphatase non-receptor type 6 (Homo sapiens) (P29350 whole entry, the tested form may be a part): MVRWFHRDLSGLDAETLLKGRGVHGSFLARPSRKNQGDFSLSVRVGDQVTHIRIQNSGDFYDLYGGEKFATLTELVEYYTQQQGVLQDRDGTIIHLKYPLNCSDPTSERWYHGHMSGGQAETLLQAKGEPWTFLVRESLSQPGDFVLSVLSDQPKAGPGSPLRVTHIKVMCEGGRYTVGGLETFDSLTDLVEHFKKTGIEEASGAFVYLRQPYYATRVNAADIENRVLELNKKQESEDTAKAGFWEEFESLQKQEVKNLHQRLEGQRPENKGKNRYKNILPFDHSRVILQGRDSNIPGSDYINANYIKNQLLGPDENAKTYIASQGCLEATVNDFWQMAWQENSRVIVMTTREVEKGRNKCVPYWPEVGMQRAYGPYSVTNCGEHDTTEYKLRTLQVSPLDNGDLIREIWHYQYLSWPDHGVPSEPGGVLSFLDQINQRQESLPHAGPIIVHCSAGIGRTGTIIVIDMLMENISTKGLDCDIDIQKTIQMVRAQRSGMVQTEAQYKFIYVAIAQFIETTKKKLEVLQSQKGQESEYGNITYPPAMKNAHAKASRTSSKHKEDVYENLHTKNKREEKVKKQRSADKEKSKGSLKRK
Experiment [5] has as its target Tyrosine-protein phosphatase non-receptor type 7 (Homo sapiens, UniProt P35236, P171C/V205C). Kind of experiment: Inhibition of allosterically sensitized mutant form of His6-tagged human HePTP catalytic domain overexpressed in Escherichia coli crude cell lysate using pNPP as substrate incubated for 90 mins by quenched phosphatase activity assay.

Results on two molecules are retold here after ChEMBL document CHEMBL4118135, “Optimized allosteric inhibition of engineered protein tyrosine phosphatases with an expanded palette of biarsenical small molecules” (Bioorg Med Chem, 2018).

In general, IC50 refers to the midpoint of a concentration-inhibition curve.

Active and inactive are the calls of the source. The calls are words filed in the database; no cut-off is given here.

Chain of Tyrosine-protein phosphatase non-receptor type 7 (P35236 whole entry P171C/V205C, the tested form may be a part): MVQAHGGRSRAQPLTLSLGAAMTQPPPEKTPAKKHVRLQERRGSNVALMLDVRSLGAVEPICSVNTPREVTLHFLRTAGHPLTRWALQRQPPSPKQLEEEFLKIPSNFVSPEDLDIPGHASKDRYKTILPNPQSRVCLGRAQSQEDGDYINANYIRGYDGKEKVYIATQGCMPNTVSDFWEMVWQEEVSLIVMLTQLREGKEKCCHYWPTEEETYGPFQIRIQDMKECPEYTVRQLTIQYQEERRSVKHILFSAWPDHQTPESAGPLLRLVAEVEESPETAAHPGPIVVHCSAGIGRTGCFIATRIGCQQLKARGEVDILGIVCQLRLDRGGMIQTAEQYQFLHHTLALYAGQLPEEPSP

For `CC1(C)C(/C=C/C=C2/N(CCCCS(=O)(=O)O)c3ccc([As]4SCCS4)cc3C2(C)C)=[N+](CCCCS(=O)(=O)O)c2ccc([As]3SCCS3)cc21`, the half-maximal inhibitory concentration (IC50) in experiment [1] is 125 nM. Besides, the inhibition result in experiment [2] and in experiment [4] was “Dose-dependent effect” in each case. The result in experiment [3] was Active.

On to `O=C(O)c1ccccc1-c1c2ccc(=O)c([As]3SCCS3)c-2oc2c([As]3SCCS3)c(O)ccc12`, for which the IC50 in experiment [5] came to 250 nM.
